What follows are molecules tested against T1, GST-tagged-Wee1 kinase (Homo sapiens, UniProt P30291) (assay: Wee1 time-resolved fluorescence equilibrium binding assay (displacement of Oregon Green-labeled ATP-competitive kinase probe)). Details: enzyme binding data; GST-tagged-Wee1 kinase 2 nM, fluorescent probe 300 nM, inhibitor 0.003 to 10 micromolar, 1 hour incubation; read-out: Wee-1 binding (Ki nM).
T1 construct: purchased Carnabio 05-177
Summary of the method: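 Competitive TR-fluorescence equilibrium binding with GST-Wee1; inhibitors displace a rapidly reversible Oregon Green-labelled ATP-competitive probe. Ki values derived from probe displacement.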

T1 sequence (P30291 whole entry): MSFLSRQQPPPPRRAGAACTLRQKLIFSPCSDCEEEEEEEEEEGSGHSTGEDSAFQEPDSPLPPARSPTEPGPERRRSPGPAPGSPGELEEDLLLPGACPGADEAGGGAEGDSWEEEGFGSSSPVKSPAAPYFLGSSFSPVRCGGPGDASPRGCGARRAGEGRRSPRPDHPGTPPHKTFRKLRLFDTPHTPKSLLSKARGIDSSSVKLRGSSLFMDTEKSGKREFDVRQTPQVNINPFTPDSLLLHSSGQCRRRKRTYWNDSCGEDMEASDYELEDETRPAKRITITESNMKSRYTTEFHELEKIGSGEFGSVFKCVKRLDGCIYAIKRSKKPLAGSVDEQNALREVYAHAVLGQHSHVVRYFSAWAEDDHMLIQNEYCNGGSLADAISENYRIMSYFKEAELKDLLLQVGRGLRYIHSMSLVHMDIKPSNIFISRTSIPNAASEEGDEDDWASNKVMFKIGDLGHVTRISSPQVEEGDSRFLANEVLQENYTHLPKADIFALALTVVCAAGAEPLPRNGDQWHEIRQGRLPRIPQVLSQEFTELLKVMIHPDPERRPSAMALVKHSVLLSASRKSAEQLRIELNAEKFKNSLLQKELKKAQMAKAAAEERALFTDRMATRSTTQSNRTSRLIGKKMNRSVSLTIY

Row | SMILES | Ki [nM]
1 | Cc1cn(-c2c(Cl)cccc2Cl)c(=O)c2cnc(Nc3ccc(N[C@H]4CC[C@@H](N(C)C)CC4)cc3)nc12 [Example 133, 6-(2,6-dichlorophenyl)-2-[(4-{[cis-4-(dimethylamino)cyclohexyl]amino}phenyl)amino]-8-methylpyrido[4,3-d]pyrimidin-5(6H)-one] | 0.5
2 | Cc1cn(-c2c(Cl)cccc2Cl)c(=O)c2nnc(Nc3ccc4c(c3)CNCC4)nc12 [Example 134, 7-(2,6-dichlorophenyl)-5-methyl-3-(1,2,3,4-tetrahydroisoquinolin-7-ylamino)pyrido[4,3-e][1,2,4]triazin-8(7H)-one] | 6.5
3 | Cc1cn(-c2c(Cl)cccc2Cl)c(=O)c2nnc(Nc3ccc4c(c3)CN(C)CC43CC3)nc12 [Example 135, 7-(2,6-dichlorophenyl)-5-methyl-3-[(2′-methyl-2′,3′-dihydro-1′H-spiro[cyclopropane-1,4′-isoquinolin]-7′-yl)amino]pyrido[4,3-e][1,2,4]triazin-8(7H)-one] | 5.7
4 | Cc1cn(-c2c(Cl)cccc2Cl)c(=O)c2cnc(Nc3ccc4c(c3)CN(C3CCN(C)CC3)C4)nc12 [Example 137, 6-(2,6-dichlorophenyl)-8-methyl-2-{[2-(1-methylpiperidin-4-yl)-2,3-dihydro-1H-isoindol-5-yl]amino}pyrido[4,3-d]pyrimidin-5(6H)-one] | 0.4
5 | Cc1cccc(C)c1-n1cc(C)c2nc(Nc3ccc(N4CCN(CCCN(C)C)CC4)cc3)ncc2c1=O [Example 139, 2-[(4-{4-[3-(dimethylamino)propyl]piperazin-1-yl}phenyl)amino]-6-(2,6-dimethylphenyl)-8-methylpyrido[4,3-d]pyrimidin-5(6H)-one] | 2.1
6 | Cc1cn(-c2c(Cl)cccc2Cl)c(=O)c2cnc(Nc3ccc4c(c3)CN(CCN(C)C)C4)nc12 [Example 141, 6-(2,6-dichlorophenyl)-2-({2-[2-(dimethylamino)ethyl]-2,3-dihydro-1H-isoindol-5-yl}amino)-8-methylpyrido[4,3-d]pyrimidin-5(6H)-one] | 1

The next molecules have a lower Ki than those just listed; values first:

Row | Ki [nM] | SMILES
7 | 0.2 | Cc1cn(-c2c(O)cccc2Cl)c(=O)c2cnc(Nc3ccc4c(c3)CNC4(C)C)nc12 [Example 136, 6-(2-chloro-6-hydroxyphenyl)-2-[(1,1-dimethyl-2,3-dihydro-1H-isoindol-5-yl)amino]-8-methylpyrido[4,3-d]pyrimidin-5(6H)-one]
8 | 0.2 | Cc1cn(-c2c(Cl)cccc2Cl)c(=O)c2cnc(Nc3ccc(N4CCN(CCN(C)C)CC4)cc3)nc12 [Example 138, 6-(2,6-dichlorophenyl)-2-[(4-{4-[2-(dimethylamino)ethyl]piperazin-1-yl}phenyl)amino]-8-methylpyrido[4,3-d]pyrimidin-5(6H)-one]
9 | 0.2 | CN(C)CCCN1CCN(c2ccc(Nc3ncc4c(=O)n(-c5c(Cl)cccc5Cl)cc(CF)c4n3)cc2)CC1 [Example 140, 6-(2,6-dichlorophenyl)-2-[(4-{4-[3-(dimethylamino)propyl]piperazin-1-yl}phenyl)amino]-8-(fluoromethyl)pyrido[4,3-d]pyrimidin-5(6H)-one]

Source: patent publication US9718821B2, “Pyridopyrimidinone inhibitors of kinases” (AbbVie Inc., priority 2012, dated 2017)
